Source: patent US20090123373A1, “AMYLOID-IMAGING AGENTS” (priority 2007, published 2009)

Legend:
[1] = target: β-amyloid (AD brain homogenates) (Homo sapiens, UniProt P05067); assay: Competitive binding assay with [3H]PIB in AD brain homogenates
Description: Binding was assayed in 12×75 mm borosilicate glass tubes. […] The resulting mixture was incubated at 37° C. for 1 h, and the bound and free radioligands were separated by rapid vacuum filtration through Whatman GF/B glass filter paper using a Brandel M-24R cell harvest and rapidly washed three times at room temperature with PBS. The filters containing the bound radioactivity were transferred to special vials containing 3 ml of universal scintillation fluid. Vials were counted using Beckman LS6500 multi-purpose scintillation counter. Specific binding was estimated as the difference between total and nonspecific binding. Under the assay conditions, the specifically bound fraction was less than 15% of the total radioactivity. The results were subjected to nonlinear regression analysis using software GraphPad Prism by which Kd and Ki values were calculated.
The postmortem brain tissues were obtained from well-defined AD patients. The gray matter was then carefully separated from white matter at autopsy and kept in −70° C. The fresh frozen gray matter was then homogenized by milling it thoroughly in a mortar in the presence of liquid nitrogen. The homogenates were then prepared in phosphate-buffered saline (PBS, pH 7.4) at a concentration of approximately 400 mg tissue/ml, aliquoted into 1-ml portions, and stored
According to the in vitro binding assays, functional groups have moderate effects on the binding affinity. […] In addition, methylation of the amino group increased the binding affinity.

[2] = Brain uptake in normal mice after iv injection; type: in vivo, mice (Swiss-Webster); conditions: for Brain uptake in mice, 2 min. / Brain uptake in mice, 30 min. / Brain uptake in mice, 60 min.: n = 3, iv tail vein, 0.185 MBq; for Brain uptake in mice, 2 min.: 2 min postinjection; for Brain uptake in mice, 30 min.: 30 min postinjection; for Brain uptake in mice, 60 min.: 60 min postinjection
Description: The radiolabeled ligand [^125I] 18 eluted from C-18 Sep-Pak™ plus cartridge was dissolved in a mixture consisting of saline (2 ml, 9 mg/ml), ethylene glycol (2 ml), ethanol (0.7 ml), and HCl (0.3 ml, […]). Under anesthesia, 0.1 ml of the above solution containing 0.185 MBq of radioactive tracer was administered to the mice through a tail vein injection (Swiss-Webster, n=3, 2 months old). The mice were then sacrificed by a heart puncture at 2, 30, and 60 min postinjection. The brain was rapidly removed, weighed, and counted. The uptake of brain was expressed as percentage of injection dose per gram.
For potential in vivo imaging studies, we radiolabeled compound […] with ^125I for brain uptake studies. Following a single iv injection of [^125I] 18 ([…], 0.185 MBq), the brain permeability was evaluated in normal mice. The brain radioactivity concentration of [^125I] 18 was determined at 2, 30, and 60 min postinjection. […] The initial brain uptake was 3.71±0.63% ID/g at 2 min postinjection, a level that is considered for potential clinical imaging studies. The brain radioactivity concentration decreased sharply to 0.78±0.14% ID/g at 30 min and 0.43±0.12% ID/g at 60 min, with a 2-to-30 min ratio of 5. […] 18 was just as low as it rapidly clears from the normal mouse brain in the absence of amyloid deposits.

[3] = Partition coefficient determination (n-octanol/PBS); type: physicochemical; conditions: n-octanol / PBS 0.1 M pH 7.4, room temperature, triplicate
Description: Partition coefficients were measured by mixing [^125I] 18 (10 μl, RCP>98%, approximately 50,0000 cpm) with sodium phosphate buffer (PBS, 3 g, 0.1 M, pH 7.4) and
n-octanol (3 g, 3.65 ml) in test tubes. The tubes were vortexed for 3 min (1 min 3×) at room temperature followed by centrifugation at 3500 rpm for 5 min. Then 1 ml of buffer and 1 ml of n-octanol were taken out, weighed, and counted. The partition coefficient was determined by calculating the ratio of cpm/g of n-octanol to that of PBS and expressed as logP oct=log [cpm/g (n-octanol)/cpm/g(PBS)]. Another 2 ml from the rest of n-octanol layer was taken out and repartitioned in a tube previously containing 3 g PBS and 1.65 ml of n-octanol until consistent partitions of the coefficient values were obtained. All assays were performed in triplicate.
Based on the conventional octanol-water partition measurement, the lipophilicity of [^125I] 18 was determined in terms of partition coefficients (logP oct). The logP oct of [^125I] 18 was found at 2.70 and the logP oct values of other dibenzothiazole derivatives were then estimated based on coefficients determined by Hansch and Leo (A substituent Constants for Correlation Analysis in Chemistry and Biology (1979) 1st ed.).

[4] = Storage stability of the radioligand; type: physicochemical
Description: 20-30% after HPLC purification. [^125I] 18 was obtained with a radiochemical purity over 98% and a specific activity near the theoretical limit (80 TBq/mmol) based on the no-carrier added sodium [^125I] iodide. The radiochemical identity of [^125I] 18 was verified by co-elution with the non-radioactive cold standard 18 on HPLC profiles. [^125I] 18 was stable enough to be kept for up to 8 h at room temperature and for up to 2 months in the refrigerator.

β-amyloid (AD brain homogenates), sequence (P05067 672-711 limits assumed): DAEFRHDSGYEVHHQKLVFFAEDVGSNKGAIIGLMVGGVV

In the case of Nc1ccc(-c2nc3ccc(-c4nc5ccccc5s4)cc3s2)cc1 [Compound 10], the Ki [1] is reported as 0.0068 to 0.036 µM.

Work on Nc1ccc(-c2nc3ccc(-c4nc5ccc(Cl)cc5s4)cc3s2)cc1 [Compound 11] yielded a Ki [1] of 0.0068 to 0.036 µM.

In the case of Nc1ccc(-c2nc3ccc(-c4nc5ccc(F)cc5s4)cc3s2)cc1 [Compound 12], the Ki [1] is reported as 0.0068 to 0.036 µM.

In the case of COc1ccc2nc(-c3ccc4nc(-c5ccc(N)cc5)sc4c3)sc2c1 [Compound 13], the Ki [1] is reported as 0.0068 to 0.036 µM.

Compound CNc1ccc(-c2nc3ccc(-c4nc5ccccc5s4)cc3s2)cc1 [Compound 14] has a Ki [1] of 0.0068 to 0.036 µM.

With CNc1ccc(-c2nc3ccc(-c4nc5ccc(Cl)cc5s4)cc3s2)cc1 [Compound 15] the Ki [1] was 0.0068 to 0.036 µM.

With CNc1ccc(-c2nc3ccc(-c4nc5ccc(F)cc5s4)cc3s2)cc1 [Compound 16, [4-(6-fluoro-[2,60]dibenzothiazolyl-20-yl)-phenyl]-methylamine] the Ki [1] was 0.0068 to 0.036 µM.

Compound CN(C)c1ccc(-c2nc3ccc(-c4nc5ccc(F)cc5s4)cc3s2)cc1 [Compound 17, [4-(6-fluoro-[2,60]dibenzothiazolyl-20-yl)-phenyl]-dimethylamine] has a Ki [1] of 0.0068 to 0.036 µM.

For Nc1ccc(-c2nc3ccc(-c4nc5ccccc5s4)cc3s2)cc1I [Compound 18, 4-[2,6′]dibenzothiazolyl-2′-yl-2-iodo-phenylamine], the Ki [1] was 0.0068 to 0.036 µM.

With Nc1ccc(-c2nc3ccc(-c4nc5ccccc5s4)cc3s2)cc1[125I] [[^125I]18, 4-[2,6′]dibenzothiazolyl-2′-yl-2-^125I-phenylamine] the “2-to-30 min ratio of brain radioactivity concentration” value ([2]; iv) was 5, the “Brain uptake in mice, 2 min.” value [2] was 3.71 ± 0.63 % ID/g and the “Brain uptake in mice, 2 min.” value ([2]; listed as [^125I] 18) was 3.71±0.63 % ID/g. The “Brain uptake in mice, 30 min.” value [2] was 0.78 ± 0.14 % ID/g, the “Brain uptake in mice, 30 min.” value ([2]; listed as [^125I] 18) was 0.78±0.14 % ID/g and the “Brain uptake in mice, 60 min.” value [2] was 0.43 ± 0.12 % ID/g. The “Brain uptake in mice, 60 min.” value ([2]; listed as [^125I] 18) was 0.43±0.12 % ID/g, the logP [3] was 2.7 and the “Stability, time it can be kept” value ([4]; in the refrigerator) was “up to 2 months”. For the same compound, the “Stability, time it can be kept” value ([4]; room temperature) was “up to 8 h”.
